Reference: US8889699B2, “5-fluorouracil derivative” (Delta-Fly Pharma, Inc., priority 2009, dated 2014)
Where two headings read alike, the source gives them in different places.

Target: T1, OPRT (Homo sapiens, UniProt P11172)
T1 construct: the obtained supernatant was used as a DPD enzyme solution or an OPRT enzyme solution; from tissue; 105,000 g supernatant of homogenate
T1 sequence (P11172 1-480): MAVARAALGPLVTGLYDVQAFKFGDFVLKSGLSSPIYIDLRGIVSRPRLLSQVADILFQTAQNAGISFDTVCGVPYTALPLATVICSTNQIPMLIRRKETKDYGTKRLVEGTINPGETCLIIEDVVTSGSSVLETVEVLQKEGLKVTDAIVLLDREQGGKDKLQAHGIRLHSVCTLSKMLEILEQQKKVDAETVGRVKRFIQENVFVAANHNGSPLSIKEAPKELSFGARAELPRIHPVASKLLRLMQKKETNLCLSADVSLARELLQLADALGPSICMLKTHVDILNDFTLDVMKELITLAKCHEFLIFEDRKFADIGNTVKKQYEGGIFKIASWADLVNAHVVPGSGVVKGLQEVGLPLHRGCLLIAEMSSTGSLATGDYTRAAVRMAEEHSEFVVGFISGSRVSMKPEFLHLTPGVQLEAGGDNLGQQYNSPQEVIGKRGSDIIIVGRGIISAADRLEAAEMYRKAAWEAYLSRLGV
Assay: OPRT inhibitory action in vitro (enzyme reaction, tritium-labeled 5-FU as substrate)
Type: biochemical
Experimental: The resulting product was diluted to concentrations of 1 mM, 100 μM, 10 μM, and 1 μM with a 10 mM potassium phosphate buffer solution (pH 6.0), thereby obtaining Test Liquids 1. The obtained Test Liquids 1 were separately added to the enzyme reaction solution described below to give final concentrations of 200 μM, 20 μM, 2 μM, and 0.2 μM. • (b) Test liquid preparation (2): As a DPD inhibitor, 5-chloro-2,4-dihydroxypyridine (CDHP; gimeracil) was dissolved to a concentration of 10 mM in a 10 mM potassium phosphate buffer solution (pH 6.0). The resulting product was diluted to concentrations of 1 mM, 100 μM, 10 μM, and 1 μM, thereby obtaining Test Liquids 2. The obtained Test Liquids 2 were separately added to the enzyme reaction solution to give final concentrations of 200 μM, 20 μM, 2 μM, and 0.2 μM. • (c) Test liquid preparation (3): As an OPRT inhibitor, citrazinic acid (Citra. A.) was dissolved to a concentration of 10 mM in 20 mM trishydroxyaminomethane-hydrochloric buffer solution (pH 8.0). Thereafter, the resulting product was diluted to concentrations of 1 mM, 100 μM, and 10 μM with a 10 mM potassium phosphate buffer solution, thereby obtaining Test Liquids (3). The obtained Test Liquids 3 were separately added to the enzyme reaction solution to give final concentrations of 200 μM, 20 μM, and 2 μM. • (d) Preparation of enzyme solution: The liver of an 8-week old SD rat was used as a DPD enzyme source, while human tumor cells that had been transplanted into a nude mouse and proliferated therein were used as an OPRT enzyme source. Specifically, immediately after a rat liver or successively-transplanted human tumor cells were extracted, a 50-mM tris-hydrochloric acid buffer solution (pH 8.0) containing 0.25 M saccharose, 5 mM magnesium chloride, and 1 mM dithreitol was added thereto to a concentration of 25% (w/v) and homogenized. Thereafter, ultracentrifugation was performed at 105,000 g for 60 minutes, and the obtained supernatant was used as a DPD enzyme solution or an OPRT enzyme solution. • (e) Enzyme reaction: A DPD enzyme reaction was carried out in accordance with the method of Tatsumi et al. (Gann, 78: 748-755 (1987)) using 5-FU labeled with tritium as a substrate. An OPRT enzyme reaction was carried out in accordance with the method of Shirasaka et al. (Cancer Res., 53: 4004-4009 (1993)) using 5-FU labeled with tritium as a substrate. Then, the activity of a control group (with no test compound) and test compound groups was measured. The percent inhibition of the test compound relative to DPD or OPRT was calculated using the following formula: [1-(the enzyme activity with the test compound/the enzyme activity of the control group)]×100(%).
The resulting product was diluted to concentrations of 1 mM, 100 μM, 10 μM, and 1 μM with a 10 mM potassium phosphate buffer solution (pH 6.0), thereby obtaining Test Liquids 1. The obtained Test Liquids 1 were separately added to the enzyme reaction solution described below to give final concentrations of 200 μM, 20 μM, 2 μM, and 0.2 μM. • (b) Preparation of enzyme solution: The liver of an 8-week old SD rat was used as a DPD enzyme source, while human tumor cells that had been transplanted into a nude mouse and proliferated therein were used as an OPRT enzyme source. Specifically, immediately after a rat liver or successively-transplanted human tumor cells were extracted, a 50-mM tris-hydrochloric acid buffer solution (pH 8.0) containing 0.25 M saccharose, 5 mM magnesium chloride, and 1 mM dithreitol was added thereto to a concentration of 25% (w/v) and homogenized. Thereafter, ultracentrifugation was performed at 105,000 g for 60 minutes, and the obtained supernatant was used as a DPD enzyme solution or an OPRT enzyme solution. • (c) Enzyme reaction: A DPD enzyme reaction was carried out in accordance with the method of Tatsumi et al. (Gann, 78: 748-755 (1987)) using 5-FU labeled with tritium as a substrate. […]

[1] = 0.2 μM, Table 2, read-out: OPRT Inhibition (%)
[2] = 2 μM, Table 2, read-out: OPRT Inhibition (%)
[3] = Conc. 0.2 μM, Table 1, read-out: OPRT Inhibitory Activity: Inhibition
[4] = Conc. 2 μM, Table 1, read-out: OPRT Inhibitory Activity: Inhibition

| SMILES | inhibition at 0.2 µM [1] [%] | inhibition at 2 µM [2] [%] | OPRT Inhibitory Activity: Activity (Conc. 0.2 μM, Table 1) [nmol/mL/min] | inhibition at 0.2 µM [3] [%] | OPRT Inhibitory Activity: Activity (Conc. 2 μM, Table 1) [nmol/mL/min] | inhibition at 2 µM [4] [%] | OPRT Inhibitory Activity: Activity (Conc. 20 μM, Table 1) [nmol/mL/min] | inhibition at 20 µM (Conc. 20 μM, Table 1) [%] | OPRT Inhibitory Activity: Activity (Conc. 200 μM, Table 1) [nmol/mL/min] | inhibition at 200 µM (Conc. 200 μM, Table 1) [%] | further results |
| --- | --- | --- | --- | --- | --- | --- | --- | --- | --- | --- | --- |
| O=C(O)c1cc(O)nc(O)c1 [Citra. A., citrazinic acid, reference compound] | 31.9 | 75.1 | 0.379 | 0 | 0.301 | 20 | 0.173 | 54 | 0.075 | 80 |  |
| CCOCn1cc(F)c(=O)n(C(=O)c2cccc(C(=O)Oc3cc(OC(=O)c4cc(O)nc(O)c4)c(Cl)cn3)c2)c1=O [Compound I-2, 3-{3-[4-(2,6-dihydroxyisonicotinoyloxy)-5-chloro-2-pyridyloxycarbonyl]benzoyl}-1-ethoxymethyl-5-fluorouracil] |  |  | 0.375 | 0 | 0.280 | 25.5 | 0.168 | 55.3 | 0.069 | 81.6 |  |
| CCOCn1cc(F)c(=O)n(C(=O)c2cccc(C(=O)Oc3cc(OC(=O)c4cc(OC(=O)C5CCCC5)nc(OC(=O)C5CCCC5)c4)c(Cl)cn3)c2)c1=O [Compound I-9, 3-{3-[4-(2,6-dicyclopentanecarbonyloxyisonicotinoyloxy)-5-chloro-2-pyridyloxycarbonyl]benzoyl}-1-ethoxymethyl-5-fluorouracil] | 41.2 | 75.9 |  |  |  |  |  |  |  |  |  |
| CCOCn1cc(F)c(=O)n(C(=O)c2cccc(C(=O)Oc3cc(OC(=O)c4cc(OC(C)=O)nc(OC(C)=O)c4)c(Cl)cn3)c2)c1=O [Compound I-10, 3-{3-[4-(2,6-diacetyloxyisonicotinoyloxy)-5-chloro-2-pyridyloxycarbonyl]benzoyl}-1-ethoxymethyl-5-fluorouracil] | 27.8 | 76.4 |  |  |  |  |  |  |  |  |  |
| CCOCn1cc(F)c(=O)n(C(=O)c2cccc(C(=O)Oc3cc(OC(=O)c4cc(OC(=O)CC)nc(OC(=O)CC)c4)c(Cl)cn3)c2)c1=O [Compound I-11, 3-{3-[4-(2,6-dipropionyloxyisonicotinoyloxy)-5-chloro-2-pyridyloxycarbonyl]benzoyl}-1-ethoxymethyl-5-fluorouracil] |  |  |  |  |  |  |  |  |  |  | IC50 (5-FU as substrate, Test Example 4, read-out: IC50 of OPRT activity inhibition): ~15 µM; OPRT Inhibitory Activity: Activity (Conc. 0.2 μM, Table 5): 0.101 nmol/mL/min; inhibition at 0.2 µM (Conc. 0.2 μM, Table 5, read-out: OPRT Inhibitory Activity: Inhibition): 42.6%; OPRT Inhibitory Activity: Activity (Conc. 2 μM, Table 5): 0.098 nmol/mL/min; inhibition at 2 µM (Conc. 2 μM, Table 5, read-out: OPRT Inhibitory Activity: Inhibition): 73.4%; OPRT Inhibitory Activity: Activity (Conc. 20 μM, Table 5): 0.046 nmol/mL/min; inhibition at 20 µM (Conc. 20 μM, Table 5): 87.5% |
